Source: ChEMBL document CHEMBL3407329, “Looking for new antileishmanial derivatives in 8-nitroquinolin-2(1H)-one series” (Eur J Med Chem, 2015)

Legend:
Leishmania donovani [1] = assay: Antileishmanial activity against Leishmania donovani MHOM/IN/00/DEVI promastigotes assessed as reduction in parasite growth incubated for 72 hrs by MTT assay; format: functional, organism-based
[2] = Selectivity index, ratio of CC50 for human HepG2 cells to IC50 for Leishmania donovani MHOM/IN/00/DEVI promastigotes; format: functional
[3] = Cytotoxicity against human HepG2 cells assessed as reduction in cell viability incubated for 72 hrs by MTT assay; format: cell-based
Leishmania donovani [4] = assay: Antileishmanial activity against Leishmania donovani MHOM/IN/00/DEVI intracellular amastigotes infected in human THP1 cells assessed as reduction in parasite-infected macrophages incubated for 120 hrs by Giemsa staining based microscopy; format: functional, organism-based; conditions: THP-1, 120 h
[5] = Cytotoxicity against human THP1 cells assessed as reduction in cell viability incubated for 72 hrs by MTT assay; format: cell-based; conditions: THP-1 cells

IC50 (Leishmania donovani [4]) [µM] | SMILES | IC50 (Leishmania donovani [1]) [µM] | Ratio CC50/IC50 [2] | CC50 at 72 h [3] [µM] | CC50 at 72 h [5] [µM]
 | O=c1cc(Oc2cccc(Br)c2)c2cccc([N+](=O)[O-])c2[nH]1 | > 10 |  |  | 
 | O=c1cc(Sc2ccc(Cl)cc2Cl)c2cccc([N+](=O)[O-])c2[nH]1 | 3.8 | >2.1 | > 7.8 | 
 | Cc1ccccc1Sc1cc(=O)[nH]c2c([N+](=O)[O-])cccc12 | > 10 |  |  | 
 | O=c1cc(Oc2ccc(Cl)cc2)c2cccc([N+](=O)[O-])c2[nH]1 | 3.7 | >1.1 | > 3.9 | 
 | O=c1cc(Oc2ccc(Br)cc2)c2cccc([N+](=O)[O-])c2[nH]1 | > 5 |  |  | 
 | O=c1cc(Oc2ccccc2)c2cccc([N+](=O)[O-])c2[nH]1 | 14 | >0.9 | > 12.5 | 
 | Cc1cc(Oc2cc(=O)[nH]c3c([N+](=O)[O-])cccc23)ccc1Cl | 6 | >2.6 | > 15.6 | 
 | O=c1cc(Oc2ccccc2F)c2cccc([N+](=O)[O-])c2[nH]1 | > 10 |  |  | 
 | O=c1cc(Sc2cccc(C(F)(F)F)c2)c2cccc([N+](=O)[O-])c2[nH]1 | > 10 |  |  | 
> 20 | N=C(N)c1ccc(OCCCCCOc2ccc(C(=N)N)cc2)cc1 [PENTAMIDINE] |  | 0.4 |  | 31.2
> 12.5 | O=c1cc(Sc2ccc(C(F)(F)F)cc2)c2cccc([N+](=O)[O-])c2[nH]1 | 3.8 | >3.3 | > 12.5 | > 12.5
 | O=c1cc(Sc2ccc(Br)cc2)c2cccc([N+](=O)[O-])c2[nH]1 | 4.2 | >0.9 | > 3.9 | 
 | COc1cccc(Oc2cc(=O)[nH]c3c([N+](=O)[O-])cccc23)c1 | > 10 |  |  | 
 | O=c1cc(Sc2ccccc2)c2cccc([N+](=O)[O-])c2[nH]1 | 9.3 | >1.3 | > 12.5 | 
 | O=c1cc(Oc2cccc(C(F)(F)F)c2)c2cccc([N+](=O)[O-])c2[nH]1 | > 10 | >0.7 | > 7.8 | 
> 12.5 | Cc1ccc(Oc2cc(=O)[nH]c3c([N+](=O)[O-])cccc23)cc1 | 6 | >4.2 | > 25 | > 12.5
 | COc1cccc(Sc2cc(=O)[nH]c3c([N+](=O)[O-])cccc23)c1 | > 10 |  |  | 
 | O=c1cc(Sc2cccc(Cl)c2)c2cccc([N+](=O)[O-])c2[nH]1 | > 10 |  |  | 
 | O=c1cc(Sc2ccc(Cl)cc2)c2cccc([N+](=O)[O-])c2[nH]1 | > 10 |  |  | 
 | COc1ccc(Sc2cc(=O)[nH]c3c([N+](=O)[O-])cccc23)cc1 | > 10 |  |  | 
 | COc1cccc2c1C(=O)c1c(O)c3c(c(O)c1C2=O)C[C@@](O)(C(=O)CO)C[C@@H]3O[C@H]1C[C@H](N)[C@H](O)[C@H](C)O1 [DOXORUBICIN] |  |  |  | 0.008
 | O=c1cc(Oc2ccccc2Br)c2cccc([N+](=O)[O-])c2[nH]1 | 8.1 | >0.96 | > 7.8 | 
 | O=c1cc(Sc2ccccc2Cl)c2cccc([N+](=O)[O-])c2[nH]1 | 3.5 | >0.4 | > 1.25 | 

IC50 (Leishmania donovani [4]) [µM] | SMILES | IC50 (Leishmania donovani [1]) [µM] | Ratio CC50/IC50 [2] | CC50 at 72 h [3] [µM] | CC50 at 72 h [5] [µM]
 | O=c1cc(Nc2ccccc2)c2cccc([N+](=O)[O-])c2[nH]1 | > 50 |  | 1.8 | 
 | O=c1cc(Oc2ccccc2Cl)c2cccc([N+](=O)[O-])c2[nH]1 | > 10 |  |  | 
 | O=c1cc(Sc2ccccc2F)c2cccc([N+](=O)[O-])c2[nH]1 | > 10 |  |  | 
 | O=c1cc(Sc2cccc(F)c2)c2cccc([N+](=O)[O-])c2[nH]1 | > 10 |  |  | 
 | O=c1cc(Oc2cccc(Cl)c2)c2cccc([N+](=O)[O-])c2[nH]1 | > 10 |  |  | 
 | O=c1cc(Sc2ccccc2C(F)(F)F)c2cccc([N+](=O)[O-])c2[nH]1 | 3.5 | >2.22 | > 7.8 | 
 | O=c1cc(N2CCOCC2)c2cccc([N+](=O)[O-])c2[nH]1 | 42.1 |  | 86.2 | 
 | NCCOCCOCCNc1cc(=O)[nH]c2c([N+](=O)[O-])cccc12 | > 50 |  | 123 | 
 | Cc1ccccc1Oc1cc(=O)[nH]c2c([N+](=O)[O-])cccc12 | > 10 |  |  | 
 | O=c1cc(Oc2cccc(F)c2)c2cccc([N+](=O)[O-])c2[nH]1 | > 10 |  |  | 
 | O=c1cc(Oc2ccc(C(F)(F)F)cc2)c2cccc([N+](=O)[O-])c2[nH]1 | 8.4 | >0.9 | > 7.8 | 
 | Cc1cccc(Oc2cc(=O)[nH]c3c([N+](=O)[O-])cccc23)c1 | > 10 |  |  | 
 | O=c1cc(Oc2ccccc2C(F)(F)F)c2cccc([N+](=O)[O-])c2[nH]1 | 10 | >1.6 | > 15.6 | 
 | Nc1cc(=O)[nH]c2c([N+](=O)[O-])cccc12 | > 50 |  | > 125 | 
 | CC(C)(C)OC(=O)NCCOCCOCCNc1cc(=O)[nH]c2c([N+](=O)[O-])cccc12 | > 50 |  | 34.8 | 
 | Cc1ccc(Sc2cc(=O)[nH]c3c([N+](=O)[O-])cccc23)cc1 | > 10 |  |  | 
 | CCCCNc1cc(=O)[nH]c2c([N+](=O)[O-])cccc12 | 21.4 |  | 12.2 | 
 | Nc1ccccc1Sc1cc(=O)[nH]c2c([N+](=O)[O-])cccc12 | > 10 |  |  | 
 | COc1ccccc1Oc1cc(=O)[nH]c2c([N+](=O)[O-])cccc12 | > 10 |  |  | 
 | O=c1cc(N2CCNCC2)c2cccc([N+](=O)[O-])c2[nH]1 | > 50 |  | 2.4 | 
 | O=c1cc(Sc2ccc(F)cc2)c2cccc([N+](=O)[O-])c2[nH]1 | > 10 |  |  | 
 | COc1ccc(Oc2cc(=O)[nH]c3c([N+](=O)[O-])cccc23)cc1 | > 10 |  |  | 
 | COc1ccccc1Sc1cc(=O)[nH]c2c([N+](=O)[O-])cccc12 | > 10 |  |  | 
